Measurements from PMC3964211, “Pharmacokinetic modeling optimizes inhibition of the ‘undruggable’ EWS-FLI1 transcription factor in Ewing Sarcoma” (Oncotarget, 2013).

Legend:
[1] = Plasma concentration after IP injection of various formulations in C57BL/6 mice; type: in vivo; settings: C57BL/6 mouse plasma, 20 minutes after IP 200 mg/kg racemic mixture, 10% w/v sucrose, 1% v/v Tween 80, 5% v/v ethanol in DI water, mean ±SD, five mice
Experimental: The poor oral bioavailability determined from the rat study caused us to focus on IV delivery. Since mice often metabolize compounds differently from rats, we also evaluated the intraperitoneal (IP) PK profle and compared it to the IV profile. We determined pharmacokinetics in C57BL/6 mice given IV (Figure 2A) or IP (Figure 2B) administrations of 75 mg/kg YK-4-279, which was the maximal solubility of compound in 20% Cremophor EL. […] In addition, drug levels in tumor were measured using SCID/bg mice with orthotopic xenografts that were treated with daily IV injections of (S)-YK-4-279 for 6 days. […] In order to determine (S)-YK-4-279 levels in the tumors, the mice were euthanized 2 hours following the fnal IV bolus dose for harvest of both tumors and plasma. […] Since the IV treatment was ineffective at reducing tumor growth, despite measurable levels in the tumor tissue, models of IP administration were used to design follow-up effcacy studies.
The plasma and tumor sample analysis was performed using calibration standards and Quality Control (QC) samples prepared in control rat or mouse plasma and tumor tissues. Plasma and tumor calibration standards were prepared from stock solutions of YK-4-279. The calibration standards, blanks, QC samples, and study samples were then processed by solid-liquid extraction (SLE) followed by analysis using liquid chromatography with mass spectrometry (LC-MS). The LC-MS systems used for the analysis of YK-4-279 was composed of Shimadzo prominence pump and auto-sampler (Kyoto, Japan), a Sciex API 5000 MS (Toronto, Ontario), with turbo ion spary in the positive ion mode. The samples for the analysis of total YK-4-279 were injected into a 50 × 2 mm Gemini- NX, 5 ¼m column (Phenomenex, Torrance, CA). The samples for the analysis of the specific enantiomers of YK-4-279 were injected into a 150 × 2 mm Lux Cellulose-2, 3 ¼m Phenomenex column. The transitions monitored were 366 amu to 135 amu for YK-4-279 and 369 amu to 138 amu for the YK-4-279-d3 internal standard. YK-4-279 concentrations were calculated using peak area response ratios and a regression equation constructed from the concentrations and peak area response ratios of the calibration standards. The lower limit of quantitation was 5.0 ng/mL in plasma and […] in tumor tissue. The concentration-time profiles were evaluated by compartmental modeling and non-compartmental analysis using WinNonlin (Pharsight Corporation, Mountain View, CA). The PK parameters obtained from the compartmental modeling were used in simulations to identify optimal dose level and dosing schedule for maintaining plasma concentration of (S)-YK-4-279 above 3 ¼M.

A4573 cells = assay: Time point re-plating (colony formation) assay; type: cell-based; settings: for Colony counts: then replated without YK-4-279
Experimental: We determined the replating efficiency of A4573 cells after 12–84 hours of treatment with 3 ¼M YK-4-279. Cells were treated for the indicated exposure time then replated without YK-4-279 to assay for colony formation (Figure 1A).
A4573 cells were plated at a density of 2×10^5 cells/dish in 60 mm dishes and incubated for 8 hours before treatment start with 3 ¼M racemic YK-4-279. Cells were removed with trypsin at their respective treatment time, cell suspensions were centrifuged, and cells were resuspended in 500 ¼l of media. One hundred microliters of cell suspension was plated in each 10 cm dish (triplicates) with 12 ml of media. Dishes were incubated for 1 week before staining with crystal violet stain. Colonies were counted using Nikon NIS Elements BR Software.

A4573 xenografts = assay: IV efficacy experiment, A4573 xenografts, with plasma and tumor drug levels; type: in vivo, SCID/bg mice
Experimental: The poor oral bioavailability determined from the rat study caused us to focus on IV delivery. Since mice often metabolize compounds differently from rats, we also evaluated the intraperitoneal (IP) PK profle and compared it to the IV profile. We determined pharmacokinetics in C57BL/6 mice given IV (Figure 2A) or IP (Figure 2B) administrations of 75 mg/kg YK-4-279, which was the maximal solubility of compound in 20% Cremophor EL. […] In addition, drug levels in tumor were measured using SCID/bg mice with orthotopic xenografts that were treated with daily IV injections of (S)-YK-4-279 for 6 days. […]
Twenty Fox Chase SCID beige mice per sex were inoculated with 2 million of A4573 cells. Tumor volume was monitored every day by caliper. […]
The plasma and tumor sample analysis was performed using calibration standards and Quality Control (QC) samples prepared in control rat or mouse plasma and tumor tissues. […] The transitions monitored were 366 amu to 135 amu for YK-4-279 and 369 amu to 138 amu for the YK-4-279-d3 internal standard. YK-4-279 concentrations were calculated using peak area response ratios and a regression equation constructed from the concentrations and peak area response ratios of the calibration standards. The lower limit of quantitation was 5.0 ng/mL in plasma and 5.0 ¼g/g in tumor tissue. […]

[2] = A4573 cells, 3 ¼M YK-4-279, 84 hours exposure

SMILES: COc1ccc(C(=O)CC2(O)C(=O)Nc3c(Cl)ccc(Cl)c32)cc1 (stereo not drawn) [YK-4-279]
- (S)-YK-4-279 Concentrations ([1]; 0.25% lecithin, 0% DMSO, 0% soybean oil): 10.5 ± 8.6 ¼M
- (S)-YK-4-279 Concentrations ([1]; 1.2% lecithin, 0% DMSO, 10% soybean oil): 20.9 ± 22.8 ¼M
- (S)-YK-4-279 Concentrations ([1]; 1.2% lecithin, 10% DMSO, 0% soybean oil): 35.8 ± 45.0 ¼M
- (S)-YK-4-279 Concentrations ([1]; 1.2% lecithin, 10% DMSO, 10% soybean oil): 39.1 ± 54.6 ¼M
- (S)-YK-4-279 Concentrations ([1]; 2.5% lecithin, 0% DMSO, 10% soybean oil): 19.8 ± 20.5 ¼M
- (S)-YK-4-279 Concentrations ([1]; 2.5% lecithin, 10% DMSO, 0% soybean oil): 59.7 ± 58.6 ¼M
- (S)-YK-4-279 Concentrations ([1]; 2.5% lecithin, 10% DMSO, 10% soybean oil): 21.3 ± 11.3 ¼M
- Decrease in colony growth between the 24 and 36 hour time points (A4573 cells; A4573 cells, 3 ¼M YK-4-279): 3 fold
- Colony counts (A4573 cells; A4573 cells, 3 ¼M YK-4-279, 24 hour exposure): 2229±101 colonies
- Colony counts (A4573 cells; A4573 cells, 3 ¼M YK-4-279, 72 hours exposure): 53 colonies
- Drop in colonies from the 24 hour time point (A4573 cells; [2]): 98.9%
- Colony counts (A4573 cells; [2]): 25±12 colonies
- Growth of surviving colonies replated in continuous presence of compound (A4573 cells; colonies from 72 and 84 hours harvested and replated in continuous presence of 3 ¼M YK-4-279): no growth was observed
- Effect on xenograft tumor growth (A4573 xenografts; A4573 xenografts in SCID/bg mice, 75 mg/kg IV QD): tumors did not regress nor reduce their growth rate
- Plasma levels 2 hours following the final IV bolus dose (A4573 xenografts; SCID/bg mice with A4573 xenografts, repeated IV injections): 1.5–18 ¼M
